# Results reported in US12285393B2, “Roles of modulators of intersectin-Cdc42 signaling in Alzheimer's disease” (priority 2017, dated 2025).
# Experiments:
# [1] = test system: microglia; assay: Pro-inflammatory microglia in the hippocampus (Iba-1); type: in vivo; conditions: WT mice; 20× objective lens
# Experimental: (§1) Tissue preparation: Mice were deeply anesthetized with 3% isoflourane vapor and euthanized by cervical dislocation. Brain tissues were harvested, and then either snap frozen for Western Blot analysis or fixed in 4% paraformaldehyde overnight for immunohistochemistry (IHC) analysis. Fixed brain tissues were washed with phosphate-buffered saline (PBS) and moved to cryoprotectant (30% sucrose in PBS) at 4° C. Once sunk in the cryoprotectant, brain tissues were subsequently embedded in the optimal cutting temperature compound (O.C.T) and rapidly frozen with chilled isopentane. Then, 8˜30 μm thickness of cryostate section was applied to brain tissues, 30 μm sections were immersed in the PBS and store at 4° C. refrigerator, and 8 μm sections were store at −80° C. refrigerator.
# (§2) Immunohistochemistry analysis: All sections were first treated with 1% H2O2 in PBS for 20 minutes at room temperature, then incubated with 0.5% Triton X-100 for 30 minutes and blocked for 30 minutes at room temperature. Brain tissues were incubated with primary antibodies from Table 6, below. […] All sections were eventually dehydrated in 95% ethanol and mounted on coverslips for light microscopy (Carl Zeiss, Thornwood, New York, United States of America).
# (§3) Methods: Brain tissues collected from each treatment group of mice from the behavior studies were subjected to pathological analysis (e.g., immunohistochemical analysis, as described above in Example 5). […] Growth cone dynamics and spine motility were either recorded with time-lapse microscopy or stained by using the fluorescein isothiocyanate (FITC) or Cyanine Dye 3 (Cy3)-conjugated Phalloidin.
# [2] = target: Cdc42 (Homo sapiens, UniProt P60953); conditions: in the presence of activating upstream signaling compounds; cited from earlier work
# [3] = Solubility profile by optical density; type: physicochemical; conditions: for solubility: in DM19
# Text: ZCL278, ZCL279, and ZCL367 were all tested for solubility in the 5 FDA approved solvents to be used in humans. […] Results are shown below in Tables 2-4. Ratio refers to the optical density of the solution comprising the modulator compound/the optical density of the carder/solvent alone.
# [4] = test system: amyloid deposits; assay: Amyloid deposition in the hippocampus (antibody 4G8 immunostaining); type: in vivo, mice; conditions: for amyloid deposits in the hippocampus: 3×Tg AD mice (untreated: average of 4); for amyloid deposition in the hippocampus: WT mice
# Experimental: as §1, §2, §3
# [5] = test system: microtubule-associated tau; assay: Tau phosphorylation in the dentate gyrus (antibody AT8 immunostaining); type: in vivo, mice
# Experimental: as §1, §2, §3
# [6] = test system: mice; assay: Long-term survival after one injection; type: in vivo; conditions: mouse, in vivo
# Experimental: Long-term Survival. Groups of 10 mice were treated with one injection of ZCL278 (up to 0.8 mg/g), ZCL279 (up to 0.6 mg/g), or ZCL367 (up to 1.6 mg/g) to examine potential lethal dosage (the maximal dosage tested when no mice died). […] Durations longer than 3 months have not been tested. As a reference, working dosage for the behavioral assessment described below used 20 ug/g for injection, […] than the highest dosage of 0.8 mg/g tested in the long-term survival experiment.
# [7] = target: T1, GTP-bound (active) Cdc42 (Mus musculus, UniProt P60766); assay: G-LISA in serum-starved Swiss 3T3 cells; type: cell-based; conditions: 50 μM
# T1 construct: endogenous in cells; host or cells: Swiss 3T3 cells
# Experimental: G-LISA: G-LISA is an ELISA-based assay that allows a quantitative determination of the levels of GTP-bound (active) Cdc42 in cellular lysates. Swiss 3T3 cells (˜50% confluent) were starved for 24h then treated with ZCL278 (50 μM) for 0, 5, 10, 15, 30, or 60 m. Cells were lysed and G-LISA conducted according to Cytoskeleton G-LISA protocol. Briefly, ˜300 μL of lysis buffer was added, cells were scraped, transferred to a centrifuge tube, and centrifuged at 0° C. for 1 min at 13,200 rpm. Samples were flash frozen in liquid nitrogen. Approximately […] protein was loaded into duplicate wells for G-LISA. Absorbance was measured at 490 nm.
# [8] = test system: 3×Tg-AD mice; assay: Nesting test; type: in vivo; conditions: 3×Tg AD mouse model; 20 μg/g I.P. once a week, 4 weeks
# Text: Six-month-old C57/BL6 (WT) and 3×Tg-AD mice with an average weight of 24 g from Jackson Laboratory (Bar Harbor, Maine, United States of America) were used. The 3×Tg-AD mice in hybrid 129/C57BL/6 background contain two mutant human transgenes, hAPP harboring Swedish mutation (hAPPswe) and mutant htau (htau301L) under a neuron-specific promoter, and also contain the knock-in mutant presenilin 1 (PS1M146V). See Oddo et al. (2003) Neuron 39:409-421). 3×Tg-AD mice were received from Jackson Laboratory as Psen1 B6:129-Psen1<tmMpm>Tg(APPSwetauP301L)1Lfa/J and the wild type control as SF2: (B6129SF1/J+p+Tyr-c+Mgf-SIJ)F2. All mice were subjected to two weeks of training for familiarizing behavioral test procedures. […]
# Nesting test: Similar to the burrowing test, 2.5 hours before the start of the dark cycle, mice were housed singly in cages containing one 5 cm square of pressed cotton (‘Nestlet’, which the mice normally received as part of their environmental enrichment) with which to make a nest. The condition of each nest was assessed after 2 hours, according to a four-point scale as follows: • 1=Nestlet not noticeably touched (>90% intact). • 2=Nestlet partially tom up (70-90% remaining intact). • 3=Mostly shredded but often no identifiable nest site (<50% remaining intact). • 4=An identifiable nest (<10% remaining intact).
# [9] = Dimethyl Sulfoxide (DMSO), RT-3 h
# [10] = Polyethylene Glycol300 (PEG-300), 30%, RT-3 h
# [11] = 1,2-Propanediol, 40%, 37° C., 1 hour
# [12] = Dimethyl Sulfoxide (DMSO), 37° C., 1 hour
# [13] = Pluronic F-68, 10%, 37° C., 1 hour
# [14] = Polyethylene Glycol300 (PEG-300), 30%, 37° C., 1 hour
# T1 sequence (P60766 whole entry): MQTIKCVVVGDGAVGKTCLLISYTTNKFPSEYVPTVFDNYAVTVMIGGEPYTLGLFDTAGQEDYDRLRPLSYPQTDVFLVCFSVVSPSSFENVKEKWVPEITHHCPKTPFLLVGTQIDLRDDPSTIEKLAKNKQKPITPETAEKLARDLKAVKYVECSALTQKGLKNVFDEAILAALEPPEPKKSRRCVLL
# Cdc42, sequence (P60953 whole entry, species assumed): as the sequence (P60766 whole entry) above
smiles,measurement,setting,value
"Cc1cc(C)nc(NS(=O)(=O)c2ccc(NC(=S)NC(=O)COc3ccc(Br)cc3Cl)cc2)n1 [ZCL278, 4-(3-(2-(4-bromo-2-chloro-phenoxy)-acetyl)-thioureido)-N-(4,6-dimethylpyrimidin-2-yl)-benzenesulfonamide]","Average Number of Microglia per Microscope Field, CA1",[1],12
same,"Average Number of Microglia per Microscope Field, CA2-3",[1],10
same,"Average Number of Microglia per Microscope Field, DG",[1],8
same,effect on Cdc42,[2],inhibit Cdc42
same,Ratio (optical density solution/solvent alone),"[3]; 1,2-Propanediol, 40%, RT-3 h",3.154
same,optical density of solution,"[3]; 1,2-Propanediol, 40%, RT-3 h",0.123
same,Ratio (optical density solution/solvent alone),[3]; [9],1.119
same,optical density of solution,[3]; [9],0.047
same,Ratio (optical density solution/solvent alone),"[3]; Pluronic F-68, RT-3 h",2.675
same,optical density of solution,"[3]; Pluronic F-68, RT-3 h",0.107
same,Ratio (optical density solution/solvent alone),[3]; [10],2.275
same,optical density of solution,[3]; [10],0.091
same,Ratio (optical density solution/solvent alone),"[3]; Sesame Oil, RT-3 h",1.395
same,optical density of solution,"[3]; Sesame Oil, RT-3 h",0.06
same,Ratio (optical density solution/solvent alone),"[3]; Sterile Water, RT-3 h",2.211
same,optical density of solution,"[3]; Sterile Water, RT-3 h",0.084
same,Ratio (optical density solution/solvent alone),"[3]; Tween 80, 0.4%, RT-3 h",1.725
same,optical density of solution,"[3]; Tween 80, 0.4%, RT-3 h",0.069
same,Ratio (optical density solution/solvent alone),"[3]; dPBS, RT-3 h",1.795
same,optical density of solution,"[3]; dPBS, RT-3 h",0.07
same,solubility,[3],completely soluble
same,amyloid deposits in the hippocampus,[4],no amyloid deposits
same,amyloid deposition in the hippocampus,[4],No amyloid deposition
same,phosphorylation of microtubule-associated tau in the dentate gyrus,[5]; 3×Tg AD mice,not evident
same,phosphorylation of microtubule-associated tau in the dentate gyrus,[5]; WT mice,no evidence
same,Lethal Dosage,[6],0.8 mg/g
same,Longest Dosing Duration,[6],3 months
same,effect on GTP-bound (active) Cdc42,"[7]; 0-60 m, serum-starved Swiss 3T3 cells",activates Cdc42
same,time of Cdc42 activity peak,[7]; another peak,about 60 min
same,time of Cdc42 activity peak,[7]; first peak,Approximately 15 min
"O=S(=O)(Nc1ccccc1O)c1ccc2oc3ccc(S(=O)(=O)Nc4ccccc4O)cc3c2c1 [ZCL279, N^2,N^8-bis(2-hydroxyphenyl)dibenzo[b,d]furan-2,8-disulfonamide]","Average Number of Microglia per Microscope Field, CA1",[1],13
same,"Average Number of Microglia per Microscope Field, CA2-3",[1],10
same,"Average Number of Microglia per Microscope Field, DG",[1],4
same,Ratio (optical density solution/solvent alone),[3]; [11],2.359
same,optical density of solution,[3]; [11],0.092
same,Ratio (optical density solution/solvent alone),[3]; [12],1.071
same,optical density of solution,[3]; [12],0.045
same,Ratio (optical density solution/solvent alone),[3]; [13],2.667
same,optical density of solution,[3]; [13],0.104
same,Ratio (optical density solution/solvent alone),[3]; [14],3.762
same,optical density of solution,[3]; [14],0.158
same,Ratio (optical density solution/solvent alone),"[3]; Sesame Oil, 37° C., 1 hour",1.872
same,optical density of solution,"[3]; Sesame Oil, 37° C., 1 hour",0.088
same,Ratio (optical density solution/solvent alone),"[3]; Sterile Water, 37° C., 1 hour",6.158
same,optical density of solution,"[3]; Sterile Water, 37° C., 1 hour",0.234
same,Ratio (optical density solution/solvent alone),"[3]; Tween-80, 0.4%, 37° C., 1 hour",3.105
same,optical density of solution,"[3]; Tween-80, 0.4%, 37° C., 1 hour",0.118
same,Ratio (optical density solution/solvent alone),"[3]; dPBS, 37° C., 1 hour",3.846
same,optical density of solution,"[3]; dPBS, 37° C., 1 hour",0.15
same,solubility,[3],completely soluble
same,amyloid deposits in the hippocampus,[4],no amyloid deposits
same,amyloid deposition in the hippocampus,[4],No amyloid deposition
same,instinctual behavior: nesting behavior,[8],improve instinctual behavior
same,phosphorylation of microtubule-associated tau in the dentate gyrus,[5]; 3×Tg AD mice,not evident
same,phosphorylation of microtubule-associated tau in the dentate gyrus,[5]; WT mice,no evidence
same,Lethal Dosage,[6],0.6 mg/g
same,Longest Dosing Duration,[6],3 months
